Patent US8373021B2, “Improving disease resistance in plants by introducing transcription factor gene” (priority 2005, dated 2013)

Legend:
Format in all cases: in vivo
OsWRKY45 = assay: Induction of OsWRKY45 gene expression by BTH treatment (Northern blot analysis); settings: rice seedlings 3.5-leaf stage, 0.5 mM BTH, leaves
Method: FIG. 1 depicts the induction of OsWRKY45 gene expression by BTH treatment. Rice plants at the 3.5-leaf stage were treated with BTH, and RNAs were prepared from leaves over time and subjected to Northern analysis. For comparison, two types of PR genes (PR1b and PBZ1) were also examined for induction of expression.
In order to detect a transcription factor gene inducibly expressed by BTH, rice seedlings (3.5-leaf stage) on day 10 after seeding were treated with 0.5 mM BTH (in 0.01% Tween 20/0.5% acetone), and the RNAs prepared over time (12, 24, 72, and 120 hours after the treatment) from BTH-treated and mock-treated rice leaves were subjected to DNA microarray analysis with the rice 22K array (Agilent). As a result, a WRKY transcription factor gene (OsWRKY45, AK066255; SEQ ID NOs: 1 and 2) that is inducibly expressed by BTH treatment was found.

[1] = test system: blast disease fungus (race 007); assay: Blast disease assay after BTH treatment in non-transformed and OsWRKY45 RNAi rice plants; settings: 0.5 mM BTH sprayed at 4-leaf stage, inoculated 2 days later, counted after 7 days
Excerpt: FIG. 8 is a graph depicting the results of inducing the blast disease resistance by BTH in rice plants in which OsWRKY45 expression is suppressed. A blast disease fungus was inoculated into non-transformed rice plants, either treated or not treated with BTH, and BTH-treated rice plants in which OsWRKY45 expression was suppressed. After seven days, the number of blotches on the 10-cm long central part of leaf blades was counted in each plant.
In order to examine the effect of suppression of OsWRKY45 expression on the blast disease resistance induced in rice by BTH treatment, non-transformed rice plants and transformed lines of rice plant in which the suppression of OsWRKY45 expression by RNAi had been confirmed were sprayed with 0.5 mM BTH at the 4-leaf stage, and then inoculated with a compatible blast disease fungus (race 007) 2 days later. After 7 days, the blotches present on the 10-cm long central part of leaf blades were counted in each plant body.

[2] = test system: PR1b and OsWRKY45 expression; assay: Induction of PR1b and OsWRKY45 expression by BTH in NH1 RNAi rice plants (RT-PCR); settings: rice plants in which NH1 was suppressed by RNAi
Excerpt: FIG. 10 is composed of photographs depicting OsWRKY45 expression in rice plants in which the expression of NH1, a rice NPR1 homolog, is suppressed by RNAi. Two lines (#7 and #14) in which the NH1 expression was suppressed by RNAi were BTH-treated or mock-treated to examine the induction of expression of PR1b and OsWRKY45 by RT-PCR.
Recently, it was reported that in Arabidopsis thaliana, the resistance to a filamentous fungus, Erysiphe cichoracearum, was enhanced by the introduction of WRKY70, a WRKY transcription factor (Li, J., Brader, G., Kariola, T., and Palva, E. T. (2006). WRKY70 modulates the selection of signaling pathways in plant defense. Plant J. 46, 477-491). […] From these findings, WRKY70 is thought to be a transcription factor downstream of NPR1. Thus, for comparison of functions between WRKY70 and OsWRKY45, the induction of PR1b and OsWRKY45 expressions by BTH was examined in rice plants in which NH1, a rice NPR1 homolog (Chern, M., Fitzgerald, H. A., Canlas, P. E., Navarre, D. A., and Ronald, P. C. (2005). Overexpression of a rice NPR1 homolog leads to constitutive activation of defense response and hypersensitivity to light. Mol. Plant-Microbe Int. 18, 511-520) was suppressed by RNAi.

c1ccc2snnc2c1 [BTH, benzothiadiazole]
time after BTH treatment within which OsWRKY45 expression was induced (OsWRKY45): ≤ 3 h | blotches on the 10-cm long central part of leaf blades ([1]; non-transformed rice): Almost no blotches were observed | blotches on the 10-cm long central part of leaf blades ([1]; rice with OsWRKY45 expression suppressed by RNAi): nearly equal number of blotches to that in non-treated, non-transformed rice plants | induction of OsWRKY45 expression by BTH [2]: not affected at all | induction of PR1b expression by BTH [2]: completely lost
